Test results reported in patent US20100324059A1, “PHARMACEUTICAL COMPOSITIONS USEFUL FOR TREATING HCV” (Gilead Sciences, Inc., priority 2009, published 2010).

Tested on: HCV genotype 1b replicon cells (Huh-luc)
Assay: Antiviral combination study of Compound 1 and Compound 2 in the HCV 1b replicon system (luciferase readout, MacSynergy II analysis)
Type: cell-based
Description: HCV genotype 1b replicon cells (Huh-luc) were obtained from Reblikon (Mainz, Germany). The replicon in these cells is designated I389luc-ubi-neo/NS3-3′/ET and encodes a selectable resistance marker (neomycin phosphotransferase) as well as the firefly luciferase reporter gene. Huh-luc cells were maintained in Dulbecco's Modified Eagle's Medium (DMEM; GIBCO, Carlsbad, Calif.) supplemented with 10% fetal bovine serum (FBS; Hyclone, Logan, Utah) and 0.5 mg/mL of G-418 (GIBCO). Cells were passaged twice a week and maintained at subconfluent levels.
Replicon cells were seeded in 96-well plates at a density of 5×10^3 cells per well in 100 μL of DMEM culture medium, excluding G-418. Compounds 1 and 2 were serially diluted 1:3 in 100% DMSO (Sigma). These serial dilutions were added to the cells at a 1:200 dilution to achieve a final concentration of 0.5% DMSO in a total volume of 200 μL. Plates were incubated at 37° C. for 3 days, after which culture media were removed and cells were lysed and assayed for luciferase activity using a commercial luciferase assay (Promega, Madison, Wis.). HCV replication levels in drug-treated samples were expressed as a percentage of those in untreated controls (defined as 100%), and data were fit to the logistic dose response equation y=a/(1+(x/b)c) using XLFit4 software (IDBS, Emeryville, Calif.). EC50 values were calculated from the resulting equations as described previously (Delaney, W. E., et al., Antimicrobial Agents Chemotherapy, 45(6):1705-1713 (2001)).
Replicon cells were seeded in 96-well plates at a density of 5×10^3 cells per well in 100 μL of culture medium. Compounds 1 and 2 were serially diluted in 100% DMSO as described above and added in a matrix format to 96-well plates, achieving a defined set of different drug concentrations and ratios in a final volume of 200 μL and a final DMSO concentration of 0.5%. For each individual drug, the EC50 value was selected as the midpoint for the concentration range tested. Cells were incubated for three days and analyzed for luciferase expression as indicated above. For the combination study, two independent experiments were performed in triplicate.
The calculated volumes of surface deviations are expressed in nM^2%. Per Prichard and Shipman, combination effects are defined as: • Highly synergistic if volumes >100 nM^2. • Moderately synergistic if volumes are >50 and ≦100 nM^2. • Additive if volumes are >−50 nM^2 and ≦50 nM^2. • Moderately antagonistic if volumes are >−100 nM^2 and ≦−50 nM^2. • Antagonistic if volumes are ≦−100 nM^2.

[1] = drug used in combination with Compound 1, 3 days, mean ± standard deviation of two or three independent experiments in triplicate

SMILES | interaction (Compound 1 with Compound 2) | Antagonism Volume [1] | Synergy Volume [1] | interaction (drug used in combination with Compound 1, classification per Prichard and Shipman)
Fc1ccccc1-c1nc2ccn(Cc3ccc(-c4ccc(C(F)(F)F)cc4C(F)(F)F)nn3)cc-2n1 [Compound 1, 5-({6-[2,4-bis(trifluoromethyl)phenyl]pyridazin-3-yl}methyl)-2-(2-fluorophenyl)-5H-imidazo[4,5-c]pyridine] | moderate synergistic interaction |  |  | 
CCC[C@H](NC(=O)[C@@H]1[C@H]2CCC[C@H]2CN1C(=O)[C@@H](NC(=O)[C@@H](NC(=O)c1cnccn1)C1CCCCC1)C(C)(C)C)C(=O)C(=O)NC1CC1 [Compound 2, (1S,3aR,6aS)—N-[1(S)-[2-(Cyclopropylamino)oxalyl]butyl]-2-[N-(pyrazin-2-ylcarbonyl)-L-cyclohexylglycyl-3-methyl-L-valyl]perhydrocyclopenta[c]pyrrole-1-carboxamide] |  | 0 ± 0 nM^2 | 79.5 ± 10.5 nM^2 | Moderate synergy
